By CC50 is commonly meant the concentration that lowers cell viability or growth by half.

Structures can show the parent of a compound that is named as a salt. Bounds are passed on as bounds.

A short description of this data set: in vitro. As to conditions: rat, gh3-tre-luc cells.

`O=[N+]([O-])C(Br)Br` [Dibromonitromethane]: under “AC50 (uM) modified / 1000, Tox21_110001=Tox21_200899, viability, 1 nM T3 present, 24 h”, the CC50 at 24 h was > 90 µM.

`CCC/C=C/CO` [(E)-2-Hexen-1-ol]: the 50% cytotoxic concentration (CC50) at 24 h (AC50 (uM) modified / 1000) is > 90 µM.

Regarding `CNC(=O)Oc1ccc(N(C)C)c(C)c1` [Aminocarb], the CC50 at 24 h (AC50 (uM) modified / 1000, Tox21_110001=Tox21_301423, viability, 1 nM T3 present, 24 h) was > 90 µM.

Molecule `c1ccc2c(CCC3CCNCC3)c[nH]c2c1` [Indalpine hydrochloride] yielded a cytotoxic concentration (CC50) at 24 h (AC50 (uM) modified / 1000) of 18.8 µM.

On to `CN(C)c1ccc(C(c2ccccc2)c2ccc(N(C)C)cc2)cc1` [Leucomalachite green], for which the cytotoxic concentration (CC50) at 24 h (AC50 (uM) modified / 1000, Tox21_110001=Tox21_302103, viability, 1 nM T3 present, 24 h) was > 90 µM.

Take `CC[C@H](C)C(=O)O[C@H]1CCC=C2C=C[C@H](C)[C@H](CC[C@@H]3C[C@@H](O)CC(=O)O3)[C@H]21` [Mevastatin]: for the setting “AC50 (uM) modified / 1000”, the CC50 at 24 h was > 50 µM.

In turn, `C[C@H]1[C@H](c2ccc(Cl)cc2)SC(=O)N1C(=O)NC1CCCCC1` [Hexythiazox] had a CC50 at 24 h (AC50 (uM) modified / 1000, Tox21_110001=Tox21_301050, viability, 1 nM T3 present, 24 h) of 67.8 µM.

In the case of `C=CC(=O)N1CCOCC1` [1-(Morpholin-4-yl)prop-2-en-1-one], the cytotoxic concentration (CC50) at 24 h (AC50 (uM) modified / 1000) is > 90 µM.

In the case of `C/C=C/C(=O)CC` [4-Hexen-3-one], the 50% cytotoxic concentration (CC50) at 24 h (AC50 (uM) modified / 1000) was > 20 µM.

Take `CCCC[n+]1cccc(C)c1` [1-Butyl-3-methylpyridinium bromide]: the CC50 at 24 h (AC50 (uM) modified / 1000) is > 90 µM.

As to `CCOC(=O)CC(=O)c1ccccc1` [Ethyl benzoylacetate], the cytotoxic concentration (CC50) at 24 h (AC50 (uM) modified / 1000) is > 90 µM.

As for `c1ccc2cnccc2c1` [Isoquinoline], the half-maximal cytotoxic concentration (CC50) at 24 h (AC50 (uM) modified / 1000) was > 90 µM.

For `OC[C@H]1O[C@@H](Oc2ccc(O)cc2)[C@H](O)[C@@H](O)[C@@H]1O` [Arbutin], under “AC50 (uM) modified / 1000”, the cytotoxic concentration (CC50) at 24 h was > 90 µM.

As to `CN(C)CCc1c[nH]c2cccc(OP(=O)(O)O)c12` [Psilocybin], the CC50 at 24 h (AC50 (uM) modified / 1000) is > 90 µM.

Where the note is “AC50 (uM) modified / 1000”, `CCN(CC)CCOC(=O)C1(c2ccccc2)CCCC1` [Caramiphen edisylate] registered a cytotoxic concentration (CC50) at 24 h of 43.2 µM.

Consider `O=P(O)(Oc1ccccc1)Oc1ccccc1` [Diphenyl phosphate], for which the CC50 at 24 h (AC50 (uM) modified / 1000, Tox21_110001=Tox21_303401, viability, 1 nM T3 present, 24 h) was > 90 µM.

For the molecule `CCC(=O)OC1(c2ccccc2)CCN(C)CC1` [1-Methyl-4-phenyl-4-propionoxypiperidine hydrochloride], the CC50 at 24 h (AC50 (uM) modified / 1000, Tox21_110001=Tox21_112832, viability, 1 nM T3 present, 24 h) was > 100 µM.

For `O=C(O)c1ccccc1Cl` [2-Chlorobenzoic acid], where the note is “AC50 (uM) modified / 1000”, the cytotoxic concentration (CC50) at 24 h is > 90 µM.

Turning to `O=[N+]([O-])c1cccc(O)c1` [3-Nitrophenol], the CC50 at 24 h (AC50 (uM) modified / 1000, Tox21_110001=Tox21_200022, viability, 1 nM T3 present, 24 h) is > 90 µM.

Regarding `O=NN(CCCl)C(=O)NCCCl` [Carmustine], the CC50 at 24 h (AC50 (uM) modified / 1000) was > 50 µM.

In the case of `COc1ccc(C=O)cc1OC` [Veratraldehyde], the half-maximal cytotoxic concentration (CC50) at 24 h (AC50 (uM) modified / 1000, Tox21_110001=Tox21_201566, viability, 1 nM T3 present, 24 h) is > 90 µM.

For the molecule `O=C1C=CC(=O)C=C1` [1,4-Benzoquinone], the half-maximal cytotoxic concentration (CC50) at 24 h (AC50 (uM) modified / 1000) is > 90 µM.

In the case of `CN(C)CCc1c[nH]c2cccc(O)c12` [Psilocin], the CC50 at 24 h (AC50 (uM) modified / 1000) was > 90 µM.

`COCCOc1cc2cc(C(=O)NC3CCN(C(C)C)CC3)n(CC(=O)Nc3ccc(Cl)cn3)c2cn1` [SAR377142]: where the note is “AC50 (uM) modified / 1000”, the CC50 at 24 h was determined as 71.7 µM.

Consider `O=C(OCCO)c1ccccc1O` [2-Hydroxyethyl salicylate], for which the CC50 at 24 h (AC50 (uM) modified / 1000) is > 50 µM.

Take `CCCCC=O` [Pentanal]: under “AC50 (uM) modified / 1000”, the CC50 at 24 h was > 90 µM.

For the molecule `CCOC(=O)COc1ccc(C)cc1` [(4-Methylphenoxy) acetic acid ethyl ester], where the note is “AC50 (uM) modified / 1000”, the CC50 at 24 h was > 90 µM.

As for `O=C(O)c1cc(/N=N/c2ccc(O)c(C(=O)O)c2)ccc1O` [Olsalazine sodium], the CC50 at 24 h (AC50 (uM) modified / 1000) is > 50 µM.

As for `C/C(=C\C(=O)OCCCCCCCCC(=O)O)C[C@@H]1OC[C@H](C[C@@H]2O[C@H]2[C@@H](C)[C@H](C)O)[C@@H](O)[C@H]1O` [Mupirocin], the CC50 at 24 h (AC50 (uM) modified / 1000) is > 50 µM.

As for `Cc1nnc2n1-c1sc(CCc3ccc(CC(C)C)cc3)cc1C(c1ccccc1Cl)=NC2C` (centres unmarked) [Israpafant], the midpoint of cytotoxicity (AC50 (uM) modified / 1000), the CC50 at 24 h, lay at 13.6 µM.

Regarding `CC1=C(C(=O)Nc2ccccc2)SCCO1` [Carboxin], the 50% cytotoxic concentration (CC50) at 24 h (AC50 (uM) modified / 1000) is > 90 µM.

Turning to `CCCCCCCCCCCCCCCCCCNC(=O)OC1CCN(C(=O)OC[C@H](COC(=O)N(Cc2cccc[n+]2CC)C(=O)c2ccccc2OC)OC)CC1` [Minopafant], under “AC50 (uM) modified / 1000”, the cytotoxic concentration (CC50) at 24 h stood at 13.6 µM.

`CC(C)(C)NC[C@H](O)COc1cccc2c1CCCC2=O` [Levobunolol hydrochloride]: under “AC50 (uM) modified / 1000”, the CC50 at 24 h is > 20 µM.

For the molecule `O=[N+]([O-])c1ccc2[nH]cnc2c1` [6-Nitrobenzimidazole], the CC50 at 24 h (AC50 (uM) modified / 1000) was > 90 µM.

For the molecule `CC(CCc1ccccc1)NC(C)C(O)c1ccc(O)cc1` (centres unmarked) [Nylidrin], the CC50 at 24 h (AC50 (uM) modified / 1000) was found to be 41.8 µM.

As for `O=Cc1ccccc1S(=O)(=O)O` [Sodium 2-formylbenzenesulfonate], the CC50 at 24 h (AC50 (uM) modified / 1000) is > 90 µM.

For `O=C(O)c1cc(O)c(O)c(O)c1` [Gallic acid], the CC50 at 24 h (AC50 (uM) modified / 1000) stood at 90.1 µM.

With `CCCCCCCCS` [1-Octanethiol], where the note is “AC50 (uM) modified / 1000”, the cytotoxic concentration (CC50) at 24 h is > 90 µM.

On to `COCC(C)OC(C)=O` (centres unmarked) [1-Methoxy-2-propyl acetate], for which the CC50 at 24 h (AC50 (uM) modified / 1000) is > 90 µM.

Take `O=c1c(-c2ccccc2)c1-c1ccccc1` [Diphenylcyclopropenone]: half-maximal cytotoxicity (AC50 (uM) modified / 1000) (CC50 at 24 h) was put at 5.54 µM.

Turning to `C#CC(C)(C)NC(=O)c1cc(Cl)cc(Cl)c1` [Propyzamide], under “AC50 (uM) modified / 1000”, the half-maximal cytotoxic concentration (CC50) at 24 h is > 90 µM.

For the molecule `O=[N+]([O-])c1cc([N+](=O)[O-])c2ccccc2c1` [1,3-Dinitronaphthalene], the CC50 at 24 h (AC50 (uM) modified / 1000, Tox21_110001=Tox21_400056, viability, 1 nM T3 present, 24 h) was > 90 µM.

As for `CN(C)C(=O)Oc1ccc[n+](C)c1` [Pyridostigmine bromide], where the note is “AC50 (uM) modified / 1000”, the half-maximal cytotoxic concentration (CC50) at 24 h is > 50 µM.

Consider `CCCC/C=C\CCCCCCCCCC=O` [(Z)-11-Hexadecenal], for which the CC50 at 24 h (AC50 (uM) modified / 1000) is > 90 µM.

As to `COc1ccc2cc(S(=O)(=O)N[C@H](CC(=O)N[C@H](Cc3ccc(CN4[C@H](C)CCC[C@@H]4C)cc3)C(=O)N(C)C(C)C)c3ccc4c(c3)OCO4)ccc2c1` [SSR 240612], the CC50 at 24 h (AC50 (uM) modified / 1000) stood at 4.04 µM.

With `O=P(O)(O)CCCl` [Ethephon], under “AC50 (uM) modified / 1000”, the 50% cytotoxic concentration (CC50) at 24 h was > 90 µM.

For `CC(=O)OCC(CCn1cnc2cnc(N)nc21)COC(C)=O` [Famciclovir], where the note is “AC50 (uM) modified / 1000”, the cytotoxic concentration (CC50) at 24 h was > 50 µM.

Turning to `CCC(c1ccccc1)c1noc(CCN(CC)CC)n1` (centres unmarked) [Proxazole citrate], where the note is “AC50 (uM) modified / 1000”, the half-maximal cytotoxic concentration (CC50) at 24 h was > 50 µM.

As for `CC(C)N1C(=O)c2ccccc2NS1(=O)=O` [Bentazone], the half-maximal cytotoxic concentration (CC50) at 24 h (AC50 (uM) modified / 1000) was > 90 µM.

For the molecule `COc1ccc(S(=O)(=O)N2c3ccc(Cl)cc3[C@](O)(c3ccccc3Cl)[C@@H]2C(=O)N2CCC[C@H]2C(N)=O)cc1OC` [Relcovaptan], the half-maximal cytotoxic concentration (CC50) at 24 h (AC50 (uM) modified / 1000) is > 50 µM.

Turning to `CCCCCCCCC(CO)CCCCCC` (centres unmarked) [2-Hexyl-1-decanol], under “AC50 (uM) modified / 1000”, the CC50 at 24 h is > 90 µM.

Take `CC[C@]1(O)C[C@H]2CN(CCc3c([nH]c4ccccc34)[C@@](C(=O)OC)(c3cc4c(cc3OC)N(C)[C@H]3[C@@](O)(C(N)=O)[C@H](O)[C@]5(CC)C=CCN6CC[C@]43[C@@H]65)C2)C1` [Vindesine sulfate salt]: the CC50 at 24 h (AC50 (uM) modified / 1000) was 0.425 µM.

In the case of `C=Cc1ccc(OC(C)=O)cc1` [4-Ethenylphenyl acetate], the CC50 at 24 h (AC50 (uM) modified / 1000) was > 90 µM.

As for `C=CCCCCCCCCOC(C)=O` [9-Decenyl acetate], the half-maximal cytotoxic concentration (CC50) at 24 h (AC50 (uM) modified / 1000) is > 90 µM.

As for `CCCCC(CC)COCC1CO1` (centres unmarked) [2-Ethylhexyl glycidyl ether], the CC50 at 24 h (AC50 (uM) modified / 1000) was > 90 µM.

Take `O=C(CCl)NCO` [2-Chloro-N-(hydroxymethyl)acetamide]: where the note is “AC50 (uM) modified / 1000, Tox21_110001=Tox21_300964, viability, 1 nM T3 present, 24 h”, the half-maximal cytotoxic concentration (CC50) at 24 h is > 90 µM.

Consider `FC(Cl)(Cl)C(F)(Cl)Cl` [1,2-Difluoro-1,1,2,2-tetrachloroethane], for which, for the setting “AC50 (uM) modified / 1000, Tox21_110001=Tox21_200566, viability, 1 nM T3 present, 24 h”, the 50% cytotoxic concentration (CC50) at 24 h was > 100 µM.

Turning to `CC(C=O)Cc1ccc(C(C)C)cc1` (centres unmarked) [Cyclamen aldehyde], where the note is “AC50 (uM) modified / 1000”, the CC50 at 24 h was > 90 µM.

Take `C[Si](C)(C)O[Si](C)(C)O[Si](C)(C)C` [Octamethyltrisiloxane]: the CC50 at 24 h (AC50 (uM) modified / 1000) was > 90 µM.

For the origin of these results see article PMC6792352, “Limited Chemical Structural Diversity Found to Modulate Thyroid Hormone Receptor in the Tox21 Chemical Library” (Environmental Health Perspectives, 2019).
